{
  "source": "patent US20120328605A1",
  "about": "“COMPOSITIONS AND USES” (priority 2010, published 2012)",
  "key": {"Lineage-CD11b+ monocytes": {"system": "Lineage-CD11b+ monocytes", "experiment": "Monocyte analysis and counting after adjuvant injection in mice", "type": "in vivo, C57BL/6 mice", "procedure": "(§1) 24-Hours after injection of the TLR adjuvants, peripheral blood was drawn from C57BL/6 mice via cardiac puncture with lithium-heparin as anticoagulant. Red blood cell lysis was performed twice on pooled blood with Ammonium Chloride-based Buffer (Sigma, Steinheim, Germany) and cells were counted with the EasyCount™ System (Immunicon). […] Cells were finally washed three times and fixed for 15 min. with a 2% paraformaldehyde solution in PBS. Fluorescence minus one (FMO) controls were always included in the assays for fluorescent compensation setting. Samples were acquired on a flow cytometer (BD FACSCanto II) and data analyzed with the FACSDiva software (BD Biosciences). Monocytes were identified by their Side/Forward scatter properties and gated as CD3-/CD45R/B220-/Ly-6G-/NK1.1-(Lineage-)/CD11b+ cells. CD11b+ monocyte frequency was reported as a percentage of the total cells excluding debris.\nas §1, with “24 hours” for “24-Hours”, “each immunomodulator,” for “the TLR adjuvants,”, “min” for “min.”, “monocytes” for “monocyte”"}, "CD11b+ monocytes": {"system": "CD11b+ monocytes", "experiment": "In vivo uptake assay of Aβ42 after immunization or passive immunotherapy", "design": "species or system C57BL/6 mice; antibody-mediated Aβ peripheral uptake: dose or concentration left out as unconfirmed", "details": "FIG. 22", "procedure": "Mice: C57BL/6 female mice were purchased from Charles River. […]\n[…] At day 22, 5 μg per mouse of fluorescent HiLyte Fluor™ 488-labeled Amyloid β 1-42 (Anaspec, Fremont, Calif.) was injected in the tail vein. Preparation of cells: Peripheral blood was drawn from immunized C57BL/6 mice via cardiac puncture with lithium-heparin as anticoagulant, 2 hours after i.v. injection of the Aβ1-42 HiLyte Fluor™ 488 (Day 22). Plasma of pooled blood was decanted and saved for measurement of antibody titres by ELISA. Red blood cell lysis was performed twice with Ammonium Chloride-based Buffer (Sigma, Steinheim, Germany) and cells were counted with the EasyCount™ System (Immunicon).\nFACS analysis: 500,000 cells were aliquoted in a 96-well plate, washed once, incubated for 10 min. on ice in the presence of Rat anti-Mouse CD16/CD32 (clone 2.4G2-BD Fc Block™) and further stained for 30 min. with a combination of the following directly conjugated antibodies at their pre-determined optimal concentration: PE-Hamster anti-Mouse CD3 (clone 145-2C11), Rat anti-Mouse CD45R/B220 (clone RA3-6B2), Rat anti-Mouse Ly-6G (clone 1A8), Mouse anti-Mouse NK1.1 (clone PK136), APC-conjugated Rat anti-Mouse CD11b (clone M1/70), PE-Cy7-conjugated Hamster anti-Mouse CD11c (clone HL3), (all from BD PharMingen). Cells were finally washed twice and fixed for 15 min. with a 2% paraformaldehyde solution in PBS. […]"}, "[1]": {"details": "single i.m. injection, 24 hrs, FIG. 12"}},
  "note": "“Also recorded” adds a separate entry of the source.",
  "data": [
    {"smiles": "CCCCCCCCCCC[C@H](CC(=O)N[C@H]1[C@H](OC[C@H](NC(=O)C[C@@H](CCCCCCCCCCC)OCCCCCCCCCC)C(=O)O)O[C@H](CO)[C@@H](OP(=O)(O)O)[C@@H]1OC(=O)C[C@@H](CCCCCCCCCCC)OCCCCCCCCCC)OCCCCCCCCCC", "note": "[CRX601]", "values": [
      {"measurement": "circulating monocytes numbers following injection", "setting": "Lineage-CD11b+ monocytes; i.m. or i.p. routes, doses of b403, FIG. 9", "value": "Upregulation of circulating monocytes numbers"},
      {"measurement": "dose enough to trigger an increase of the monocyte count compared to PBS", "setting": "Lineage-CD11b+ monocytes; [1]", "value": 1, "unit": "µg"},
      {"measurement": "dose of maximum response (monocyte count)", "setting": "Lineage-CD11b+ monocytes; [1]", "value": 10, "unit": "µg"},
      {"measurement": "effect on monocyte count at 20 μg dose", "setting": "Lineage-CD11b+ monocytes; single i.m. injection, FIG. 12", "value": "down modulated"},
      {"measurement": "antibody-mediated Aβ uptake, effect of CRX601 when combined with AS03 emulsion", "setting": "CD11b+ monocytes; CRX601 20 ug with AS03", "value": "partially quenched"},
      {"measurement": "antibody-mediated Aβ peripheral uptake", "setting": "CD11b+ monocytes; single i.m. injection, 24 hrs, Aβ Fluor i.v., 2 hrs", "value": "highest Aβ uptake; also recorded: Dose-response observed"}
    ]}
  ]
}
